Source: PMC11474028, “Lipopeptide antibiotics disrupt interactions of undecaprenyl phosphate with UptA” (Proceedings of the National Academy of Sciences of the …, 2024)

What was measured:
UptA Q64A = experiment: Native MS of C55-P binding to UptA mutant Q64A; design: species or system Bacillus subtilis; settings: 5 µM protein, 10 µM C55-P, pH 8.02, 0.05% LDAO, 200 mM ammonium acetate, collisional activation 100 V; three biological replicates
Description: Conserved arginine residues in the putative membrane reentrant loops of E. coli DedA proteins YqjA (R130) and YghB (R136) are important for the cellular role of these proteins ([36]). […] How these residues impact substrate interactions, however, is not known. Based on the model structure of UptA predicted by AlphaFold, the R112 residue should engage Q64 while R118 is able to form hydrogen bonds with E32, H119, and W146 to potentially stabilize the membrane reentrant loops (Fig. 3A). To test for the impact of these residues on C55-P binding, we generated the E32A, Q64A, R112A, R118A, H119A, and W146A UptA single mutants. After purification of the proteins, using the same protocol as the wild type (WT) (Materials and Methods and SI Appendix, Fig. S5), we equilibrated aliquots of each protein variant (5 µM) with C55-P (10 µM) and recorded spectra using the same instrument settings. […] We additionally generated a double mutant R112E/R118E in which the polarity of both native arginine residues in the wild type are reversed.
Expression and purification of UptA
Plasmids were used to transform chemically competent E. coli C43(DE3) cells (Lucigen) and selected on LB/Agar containing 100 μg/ml ampicillin at 37 °C. Single colonies were used to inoculate 60 mL LB containing 100 μg/ml ampicillin and were grown at 37 °C overnight for 16 h. […]

UptA R112A/R118A = experiment: Native MS of C55-P binding to UptA double mutant R112A/R118A; design: species or system Bacillus subtilis; settings: 5 µM protein, 10 µM C55-P, pH 8.02, 0.05% LDAO, 200 mM ammonium acetate, 100 V; mean of three biological replicates

SMILES: CC(C)=CCC/C(C)=C/CC/C(C)=C/CC/C(C)=C\CC/C(C)=C\CC/C(C)=C\CC/C(C)=C\CC/C(C)=C\CC/C(C)=C\CC/C(C)=C\CC/C(C)=C\COP(=O)(O)O [C55-P, undecaprenyl phosphate]
- reduction in C55-P binding intensity compared to wild type, Q64A (in words) (UptA Q64A): modest reduction
- reduction in C55-P binding, R112A/R118A (UptA R112A/R118A): 43%
